“Also recorded” adds a separate entry of the source.
What was measured:
cochlear macrophages = experiment: Cochlear macrophage ablation, DAPI and CX3CR1-GFP staining of cochlear sections; type: in vivo, mouse; details: for ablation of cochlear macrophages: DAPI and CX3CR1-GFP staining of cochlea, saline- and cisplatin-treated mice, vs no pexidartinib
Source text: The CSF1R inhibitor can inhibit, directly and/or indirectly, macrophages, or microglia, or both. Inhibition and/or killing of macrophages and/or microglia can be referred to as “ablation.” The macrophages can comprise cochlear resident macrophages, or recruited macrophages, or both. Fractalkine receptor CX3CR1 is a regulator of macrophage function and can be utilized to label macrophages. The resident macrophages can comprise perivascular resident macrophage-like melanocytes (PVM/Ms). PVM/Ms can regulate the integrity of the blood labyrinth barrier (BLB), a barrier between the vasculature and the inner ear fluids (endolymph or perilymph). The BLB can control exchanges between the blood and fluids from intrastitial space in cochlea. The BLB can maintain the inner ear fluid ionic homeostasis. The BLB can restrict entry of most blood-borne (toxic) substances into inner ear tissues. The BLB can selectively pass ions, fluids, and nutrients into cochlea. The CSF1R inhibitor can affect, directly and/or indirectly, the blood labyrinth barrier (BLB) and one or more of its functions.
(§1) A clinically relevant mouse model of cisplatin-induced ototoxicity was developed and used to examine whether macrophages play a role in hearing loss in response to cisplatin. Pexidartinib is an inhibitor of the colony stimulating factor 1 receptor (CSF1R), which aids in the survival of microglia and cochlear resident macrophages.

[1] = system: cisplatin-induced hearing loss; experiment: Hearing sensitivity by auditory brainstem responses (ABR) in cisplatin-treated mice; type: in vivo, mouse; details: cisplatin plus pexidartinib vs cisplatin only, after end of third cycle
[2] = Cisplatin-induced weight loss in mouse model of cisplatin ototoxicity; type: in vivo; details: cisplatin-treated mice with macrophage ablation
Source text: as §1

outer hair cell function = experiment: Distortion product otoacoustic emissions (DPOAE) in cisplatin-treated mice; type: in vivo, mouse; details: cisplatin plus pexidartinib vs cisplatin only; 16, 22, 32, 40 kHz
[3] = Mass spectrometry measurement of platinum content in microdissected inner ear tissues; type: in vivo, mouse; details: spiral ganglion neurons, organ of Corti, stria vascularis, utricle, saccule
outer hair cells = experiment: Outer hair cell survival, Myosin 7a staining and quantification of cochlear hair cells; type: in vivo, mouse; details: cisplatin mice co-treated with PLX3397, Myosin 7a staining, 16, 22.4, 32, 40 kHz regions
Experimental: Hearing sensitivity was assessed prior to pexidartinib/cisplatin administration and after the end of the third cycle of the treatment protocol using auditory brainstem responses (ABR) and distortion product otoacoustic emissions (DPOAE). […] Histology can be performed using MyosinVIla (turquoise).
The data are supportive of macrophage ablation being protective against cisplatin-induced hearing loss. […] Data and other information relevant to the experimental examples are depicted in the various figures of the drawings and summarized herein.

Compound	number of macrophages in the cochlea (cochlear macrophages; cisplatin vs control, whole cochlear section)	ablation of cochlear macrophages (cochlear macrophages)	ablation of cochlear macrophages (cochlear macrophages; listed as PL3397)	cisplatin-induced hearing loss (ABR threshold shifts) [1]	cisplatin-induced hearing loss (ABR threshold shifts) ([1]; listed as PLX3397)	cisplatin-induced weight loss [2]	OHC function (DPOAE amplitudes) (outer hair cell function)	cisplatin entry into the inner ear (platinum content) [3]	OHC survival (outer hair cells)	OHC survival (outer hair cells; listed as PLX3397)
N.N.[Cl][Pt][Cl] [cisplatin]	reduced number of macrophages in the cochlea	–	–	–	–	–	–	–	–	–
FC(F)(F)c1ccc(CNc2ccc(Cc3c[nH]c4ncc(Cl)cc34)cn2)cn1 [pexidartinib]	–	ablate macrophages; also recorded: effectively ablates cochlear macrophages; also recorded: ablation of macrophages	effectively ablates cochlear macrophages	significantly reduced hearing loss	significantly reducing cisplatin-induced hearing loss	significantly reduced cisplatin-induced weight loss	protected from the loss of OHC function; also recorded: higher DPOAE amplitudes	reduces cisplatin entry into the inner ear; also recorded: reduced cisplatin entry to the inner ear	increased OHC survival; also recorded: protection of outer hair cells against cisplatin-induced hair cell loss	greater OHC survival
